{"source": "patent US20190375764A1", "about": "“SALTS OF A HETEROCYCLIC COMPOUND AND CRYSTALLINE FORMS, PROCESSES FOR PREPARING, THERAPEUTIC USES, AND PHARMACEUTICAL COMPOSITIONS THEREOF” (Sunovion Pharmaceuticals Inc., priority 2018, published 2019)", "type_in_all_cases": "physicochemical", "key": {"[1]": {"assay": "Dynamic vapor sorption (DVS) moisture sorption isotherm", "settings": "for hygroscopicity: result of DVS, in words", "experimental": "DVS moisture sorption isotherms were generated using a Hiden Analytical IGA-sorp moisture sorption analyzer. Samples were run as received without pre-analysis drying. Each sample was equilibrated between about 30 and 120 minutes at each relative humidity (RH) step. Temperature was fixed at about 25° C. and the relative humidity steps (0 to 95% RH) were in 5-10% increments. Sample sizes ranged from 3 to 30 mg. After DVS measurement, XRPD was measured in order to check the solid form. Dynamic Vapor sorption (DVS) moisture sorption isotherms were generated using IGA-sorp moisture sorption analyzer (Hiden Analytical). Sample measurements were run without drying before analyses. XRPD was measured in order to check any changes of the solid form after the moisture sorption/desorption. The measurement condition is shown below: • Time at each RH steps: From 30 to 120 minutes • Relative humidity steps: 5 or 10% steps • Temperature: 25° C."}, "[2]": {"assay": "Crystal form stability on humidity, storage and drying (XRPD / FT-Raman)", "settings": "for crystal form before and after DVS measurement (XRPD): moisture sorption/desorption", "experimental": "DVS moisture sorption isotherms were generated using a Hiden Analytical IGA-sorp moisture sorption analyzer. Samples were run as received without pre-analysis drying. Each sample was equilibrated between about 30 and 120 minutes at each relative humidity (RH) step. Temperature was fixed at about 25° C. and the relative humidity steps (0 to 95% RH) were in 5-10% increments. Sample sizes ranged from 3 to 30 mg. After DVS measurement, XRPD was measured in order to check the solid form. FT-Raman analyses were performed by using MultiRAM (Bruker Optics). Each suspension or dry powder sample was measured from out of glass vial. The measurement condition is shown below: • Excitation wavelength: 1064 nm • Laser power: 500 mW • Wavenumber: 4 cm^−1 • Sample scan: 128 times X-ray Powder Diffraction (XRPD) spectra were obtained by X'pert Pro MPD (Spectris). X-rays was generated with Cu Kα radiation. The powder samples were put on the reflection free sample plate. The XRPD patterns were analyzed by HighScorePlus. The measurement condition is shown below: • Range angle: From 4 to 30°, to 40° and to 65° (2θ) • Step size: 0.017° • Time per step: 100 s Dynamic Vapor sorption (DVS) moisture sorption isotherms were generated using IGA-sorp moisture sorption analyzer (Hiden Analytical). Sample measurements were run without drying before analyses. XRPD was measured in order to check any changes of the solid form after the moisture sorption/desorption. The measurement condition is shown below: • Time at each RH steps: From 30 to 120 minutes • Relative humidity steps: 5 or 10% steps • Temperature: 25° C."}, "[3]": {"assay": "Temperature controlled XRPD (crystal form on heating)", "settings": "heating up to melting", "experimental": "Temperature controlled XRPD was measured by the X'pert-MPD with an Anton Paar TCU 100 Temperature Control Unit. Sample was measured from 30° C. to 250° C. or 270° C. with 10° C. increments. Measurement conditions were as follows: range: 4-30°, step: 0.017°, time per step: 100 s.\nFT-Raman, XRPD, DSC, TGA, and DVS instruments and techniques are similar to those in Example 3. Temperature controlled XRPD was measured by X'pert-Pro MPD (Spectris) with TCU 100 Temperature Control Unit (Anton Paar). The temperature of the sampling stage was increased step by step as programmed and XRPD patterns of sample were measured at each step. The measurement condition is shown below: • Range angle: From 4 to 30° • Step size: 0.017° • Time per step: 100 s"}, "[4]": {"settings": "humidity increased from 0% RH to 95% RH"}}, "note": "Entries after “also recorded” stand apart in the source; their conditions may differ.", "data": [{"smiles": "CNC[C@H]1OCCn2nc3ccccc3c21.Cl", "note": "[Form HA, (R)-1-(3,4-dihydro-1H-[1,4]oxazino[4,3-b]indazol-1-yl)-N-methylmethanamine hydrochloride]", "values": [{"measurement": "weight gain (DVS)", "setting": "[1]; at 95% RH", "value": "over 100%"}, {"measurement": "hygroscopicity", "setting": "[1]; hydrochloride", "value": "Highly hygroscopic"}, {"measurement": "crystal form before and after DVS measurement (XRPD)", "setting": "[2]; hydrochloride", "value": "transformed to Form HC mixed with an unidentified polymorph"}]}, {"smiles": "CNC[C@H]1OCCn2nc3ccccc3c21.O=C(O)/C=C/C(=O)O", "note": "[Form FA, (R)-1-(3,4-dihydro-1H-[1,4]oxazino[4,3-b]indazol-1-yl)-N-methylmethanamine fumarate]", "values": [{"measurement": "transformation of crystal form, temperature controlled XRPD", "setting": "[3]", "value": "not transformed to any other polymorph"}]}, {"smiles": "CNC[C@H]1OCCn2nc3ccccc3c21.O=C(O)/C=C/C(=O)O", "note": "[fumarate, (R)-1-(3,4-dihydro-1H-[1,4]oxazino[4,3-b]indazol-1-yl)-N-methylmethanamine fumarate]", "values": [{"measurement": "hygroscopicity", "setting": "[1]", "value": "no hygroscopicity"}]}, {"smiles": "CNC[C@H]1OCCn2nc3ccccc3c21.O=S(=O)(O)c1ccccc1", "note": "[Form BA, (R)-1-(3,4-dihydro-1H-[1,4]oxazino[4,3-b]indazol-1-yl)-N-methylmethanamine benzenesulfonate]", "values": [{"measurement": "weight gain (DVS)", "setting": "[1]; at 90% RH, another batch of Form BA", "value": "about 1%"}, {"measurement": "weight gain (DVS)", "setting": "[1]; at 90% RH, one batch of Form BA", "value": "about 2%"}, {"measurement": "weight gain (DVS)", "setting": "[1]; at 95% RH", "value": "about 2%"}, {"measurement": "weight gain (DVS)", "setting": "[1]; at 95% RH, another batch of Form BA", "value": "about 2%"}, {"measurement": "weight gain (DVS)", "setting": "[1]; at 95% RH, one batch of Form BA", "value": "about 8%"}, {"measurement": "hygroscopicity", "setting": "[1]; benzenesulfonate", "value": "less hygroscopicity; also recorded: good hygroscopicity behavior"}, {"measurement": "hygroscopicity", "setting": "[1]; listed as besylate, benzenesulfonate", "value": "less hygroscopicity"}, {"measurement": "transformation of crystal form, temperature controlled XRPD", "setting": "[3]", "value": "not transformed to any other polymorph"}]}, {"smiles": "CNC[C@H]1OCCn2nc3ccccc3c21.Cl", "note": "[Form HB, (R)-1-(3,4-dihydro-1H-[1,4]oxazino[4,3-b]indazol-1-yl)-N-methylmethanamine hydrochloride]", "values": [{"measurement": "crystal form stability on isolation", "setting": "[2]; observed only in a suspension state, filtrated and dried, hydrochloride", "value": "transformed to Form HC or Form HA; also recorded: Not stable"}]}, {"smiles": "CNC[C@H]1OCCn2nc3ccccc3c21.Cc1ccc(S(=O)(=O)O)cc1", "note": "[Form TA, (R)-1-(3,4-dihydro-1H-[1,4]oxazino[4,3-b]indazol-1-yl)-N-methylmethanamine tosylate]", "values": [{"measurement": "weight gain (DVS)", "setting": "[1]; at 95% RH", "value": "about 1%"}, {"measurement": "weight gain (DVS)", "setting": "[1]; [4]", "value": "~1", "unit": "%"}, {"measurement": "hygroscopicity", "setting": "[1]; listed as Tosylate, tosylate", "value": "less hygroscopicity"}, {"measurement": "hygroscopicity", "setting": "[1]; listed as tosylate, tosylate", "value": "less hygroscopicity"}, {"measurement": "hygroscopicity", "setting": "[1]; tosylate", "value": "less hygroscopicity; also recorded: good hygroscopicity behavior; also recorded: non-hygroscopicity"}, {"measurement": "transformation of crystal form, temperature controlled XRPD", "setting": "[3]; tosylate", "value": "not transformed to any other polymorph; also recorded: stable in terms of the crystal form and not transformed to another form until the melting point"}, {"measurement": "crystal form before and after DVS measurement (XRPD)", "setting": "[2]", "value": "no changes of the crystal form"}]}, {"smiles": "CNC[C@H]1OCCn2nc3ccccc3c21.O=C(O)/C=C/C(=O)O", "note": "[Form FB, (R)-1-(3,4-dihydro-1H-[1,4]oxazino[4,3-b]indazol-1-yl)-N-methylmethanamine fumarate]", "values": [{"measurement": "weight gain (DVS)", "setting": "[1]; at over 75% RH", "value": "about 5%"}, {"measurement": "crystal form after storage under humidity", "setting": "[2]; 75% RH overnight (NaCl water suspension)", "value": "Form FA was observed"}, {"measurement": "crystal form under dry condition or heated", "setting": "[2]; dry condition or heated, quickly transformed back to hydrous form in the air", "value": "anhydrous form can be obtained"}]}, {"smiles": "CNC[C@H]1OCCn2nc3ccccc3c21.Cl", "note": "[Form HD, (R)-1-(3,4-dihydro-1H-[1,4]oxazino[4,3-b]indazol-1-yl)-N-methylmethanamine hydrochloride]", "values": [{"measurement": "crystal form transformation", "setting": "[2]; at room temperature", "value": "Transformed to Form C"}]}, {"smiles": "CNC[C@H]1OCCn2nc3ccccc3c21.Cl", "note": "[Form HC, (R)-1-(3,4-dihydro-1H-[1,4]oxazino[4,3-b]indazol-1-yl)-N-methylmethanamine hydrochloride]", "values": [{"measurement": "weight gain (DVS)", "setting": "[1]; between 60% RH and 70% RH (Form HC transformed to Form HD)", "value": 6.5, "unit": "%"}, {"measurement": "weight gain (DVS)", "setting": "[1]; [4]", "value": 9.3, "unit": "%"}, {"measurement": "hygroscopicity", "setting": "[1]; hydrochloride", "value": "hygroscopic"}, {"measurement": "crystal form after storage at high-humid condition (Raman)", "setting": "[2]; 75% RH for 1 day, saturated sodium chloride water", "value": "transformed to Form HD"}, {"measurement": "crystal form transformation", "setting": "[2]; humidity level of more than 70% RH", "value": "Transformed to Form D"}, {"measurement": "crystal form before and after DVS measurement (XRPD)", "setting": "[2]; hydrochloride", "value": "basically stable"}]}]}
